# Data: article PMC6378053, “Flavonol 7-O-Glucoside Herbacitrin Inhibits HIV-1 Replication through Simultaneous Integrase and Reverse Transcriptase Inhibition” (Evidence-based Complementary and Alternative Medicine : eCAM, 2019)
# Assays:
# [1] = target: T1, recombinant HIV-1 integrase (IN) (Human immunodeficiency virus type 1 group M subtype B, UniProt P04585); assay: HIV-1 integrase inhibition, IN assay kit; assay type: biochemical; details: 2.15 μM concentration
# T1 construct: activity of recombinant HIV-1 reverse transcriptase (RT) and integrase (IN); purchased Express Biotech International
# Description: (§1) Inhibitory effects of compounds on the HIV-1 reverse transcriptase and integrase activity were measured by a colorimetric RT kit (Roche Diagnostics) and IN assay kit (Express Biotech International) according to the instructions of the manufacturer. Reverse transcriptase assay measures the amount of labeled nucleotides incorporated during the transcription process of RNA. Nevirapine, a nonnucleoside RT inhibitor, was used as a positive control in the RT reaction. HIV-1 integrase assay measures the integrase activity after 3′-end processing of the HIV-1 LTR donor substrate DNA and catalyzing the strand-transfer recombination reaction to integrate the donor substrate DNA into the target substrate DNA. Sodium azide was applied as a positive control compound in the experiments measuring the integrase activity. The RT and IN inhibition assays were performed in two biological replicates. Statistical analysis was performed by one-way ANOVA followed by Bonferroni's post hoc test, and a planned comparison by unpaired T-test was also performed (see Figure 3(b)).
# HIV-1 (HTLV-IIIB) = assay: Cell-based antiviral assay, HIV-1 p24 core protein ELISA in supernatants of infected MT-4 and MT-2 cells; details: nontoxic concentrations (2.1 μM), 5 days of incubation
# Description: MT-4 and MT-2 cells at a density of 15,000 cells/well were incubated in 96-well plates in the presence of compounds at 37°C in 5% CO2 for 5 days. Simultaneously, cells were exposed to HIV-1 (2,32∗10^2 TCID50/ml). Untreated and infected or AZT (3′-azido-3′-deoxythymidine)-treated cells were used as controls. After the incubation period, diluted culture supernatants were analyzed for HIV production by determining the amount of viral core protein using a p24 enzyme-linked immunosorbent assay (ELISA) kit (Fujirebio) according to manufacturer's instructions. The results were expressed relative to the control of untreated HIV-1 infected cells. The experiment was performed in four biological replicates. Statistical analysis was performed by one-way ANOVA followed by Bonferroni's post hoc test.
# [2] = MTT cytotoxicity assay on MT-2 cells; details: human
# Description: (§2) The permanent human T-cell lines MT-4 and MT-2 were maintained at 37°C in a humidified atmosphere containing 5% CO2 in RPMI 1640 (Sigma-Aldrich) medium supplemented with 10% heat-inactivated fetal bovine serum (Sigma-Aldrich), 100 IU/ml penicillin and 100 μg/ml streptomycin (Sigma-Aldrich). HIV-1 (HTLV-IIIB) was obtained from the culture supernatant of MT-4/HTLV-IIIB cells. The 50% HIV-1 tissue culture infectious dose (TCID50) on MT-4 cells was determined by virus yield assay.
# (§3) To determine the in vitro cytotoxic effect of the compounds, viability of the treated and untreated cells was measured by a colorimetric assay as described earlier. Briefly, MT-4 and MT-2 cells were seeded into a 96-well plate at a density of 15,000 cells/well in the presence of different concentrations of the compounds dissolved in dimethyl sulfoxide (DMSO). […] After 4 days of incubation, cell cultures were analyzed using MTT cell viability assay (Sigma-Aldrich) to monitor the reduction of 3-(4,5-dimethylthiazol-2-yl)-2,5-diphenyl-tetrazolium bromide (MTT) to a blue formazan product by metabolically active cells. To initiate the cell viability assay, 20 μl MTT (5 mg/mL dissolved in PBS) was added to each well. After 4 h incubation cell supernatant was removed and 100 μl DMSO per well was added. The absorbance was measured at 550 nm on a microplate reader after mixing the contents thoroughly. The cytotoxicity tests were implemented in two biological replicates.
# [3] = MTT cytotoxicity assay on MT-4 cells; details: human
# Description: as §2, §3
# [4] = target: T2, recombinant HIV-1 reverse transcriptase (RT) (Human immunodeficiency virus type 1 group M subtype B, UniProt P04585); assay: HIV-1 reverse transcriptase inhibition, colorimetric RT kit; assay type: biochemical; details: 21.5 μM concentration
# T2 construct: activity of recombinant HIV-1 reverse transcriptase (RT) and integrase (IN); purchased Roche Diagnostics
# Description: as §1
# IN = details: cited from earlier work
# MT-2 cells = details: at concentrations as high as 800 μM; cited from earlier work
# [5] = test system: IN (strand transfer reaction); set-up: method as in PMID 12213478; details: in vitro; cited from earlier work
# HIV [6] = test system: HIV; set-up: method as in PMID 12213478; details: MT-2 cells; read-out: IC50 HIV infection of MT-2 cells; cited from earlier work
# HIV-1 [7] = test system: HIV-1; set-up: method as in PMID 25546350; details: C8166 cells; cited from earlier work
# HIV-1 BaL, HIV-1 MN = test system: HIV-1 BaL, HIV-1 MN; set-up: method as in PMID 25546350; details: TZM-bl cell plus HIV-1 BaL and H9, and PBMC plus HIV-1 MN; read-out: IC50 antiviral effect; cited from earlier work
# HIV [8] = test system: HIV; set-up: method as in doi:10.3844/ajidsp.2009.135.141; details: normal peripheral blood mononuclear cells (PBMC); cited from earlier work
# HIV-1 [9] = test system: HIV-1; set-up: method as in PMID 25546350; details: C8166 cells; cited from earlier work; remark: listed apart in the source
smiles,measurement,setting,value
"O=c1c(O)c(-c2ccc(O)cc2)oc2c(O)c(OC3OC(CO)C(O)C(O)C3O)cc(O)c12 (stereo not drawn) [Herbacitrin (1), herbacitrin]",Inhibition of HIV-1 integrase activity,[1]; listed as Herbacitrin,active
same,Inhibition of HIV-1 integrase activity,[1]; listed as herbacitrin,inhibited
same,Effect on HIV-1 replication (p24 core protein levels),HIV-1 (HTLV-IIIB),reduced HIV-1 replication
same,CC50 at 4 days,[2]; MT-2 cells,63.6 µM
same,CC50 at 4 days,[3]; MT-4 cells,27.8 µM
same,Inhibition of HIV-1 reverse transcriptase activity,[4]; listed as Herbacitrin,inhibit
same,Inhibition of HIV-1 reverse transcriptase activity,[4]; listed as herbacitrin,significantly inhibited
"O=c1c(O)c(-c2ccc(O)c(O)c2)oc2cc(O)c(O)c(O)c12 [quercetagetin, quercetagetin (6-hydroxyquercetin)]",Inhibition of viral cleavage and integration,IN,strong inhibitor
O=c1cc(-c2ccc(O)c(O)c2)oc2cc(O[C@@H]3O[C@H](CO)[C@@H](O)[C@H](O)[C@H]3OS(=O)(=O)O)cc(O)c12 [Thalassiolin A],Cytotoxicity,MT-2 cells,no cytotoxicity
same,Inhibitory concentration against the strand transfer reaction,[5],submicromolar
same,IC50,HIV [6],~30 µM
"O=c1c(O)c(-c2ccc(O)c(O)c2)oc2cc(O)cc(O)c12 [Quercetin (3), quercetin]",EC50 inhibition of syncytium formation,HIV-1 [7],42.55 µg/mL
same,Effect on HIV-1 replication (p24 core protein levels),HIV-1 (HTLV-IIIB),reduced HIV-1 replication
same,IC50,"HIV-1 BaL, HIV-1 MN",29.8 to 89 µM
same,"Anti-HIV activity (HIV replication, virus infectivity)",HIV [8],significant anti-HIV activity
same,CC50 at 4 days,[2],157 µM
same,CC50 at 4 days,[3],108 µM
same,EC50 protection of HIV-1 induced cytopathic effects,HIV-1 [9],23.2 µg/mL
"O=c1c(O)c(-c2ccc(O)c(O)c2)oc2c(O)c(OC3OC(CO)C(O)C(O)C3O)cc(O)c12 (stereo not drawn) [Gossypitrin (2), gossypitrin]",Effect on HIV-1 replication (p24 core protein levels),HIV-1 (HTLV-IIIB),ineffective
same,CC50 at 4 days,[2]; MT-2 cells,113 µM
same,CC50 at 4 days,[3]; MT-4 cells,101 µM
